{"source": "patent US9101642B2", "about": "“Ticagrelor co-crystal” (AstraZeneca AB, priority 2011, dated 2015)", "key": {"[1]": {"experiment": "Micro-dissolution in blank Fassif (fasted intestinal fluid without micelle forming components)", "assay_type": "physicochemical", "details": "blank Fassif pH 6.5, 9 mg in 25 ml, mean of n = 2", "description": "(§1) Micro-dissolution investigations were performed on 9 mg of a sample of Compound A:acetyl salicylic acid co-crystal (prepared as described in Example 4) or Compound A Form II in both 25 ml of (i) Fasted intestinal fluid (Fassif) without micelle forming components (termed blank Fassif) and (ii) of Simulated Gastric Fluid (SGF). The samples were magnetically stirred and aliquots were taken at appropriate time intervals, centrifuged and the supernatant analysed by HPLC and the concentration of Compound A measured as a function of time.\nFasted intestinal fluid without micelle forming components (blank Fassif) media was prepared from 0.348 g NaOH pellets, 3.954 g NaH2PO4.H2O and 6.186 g NaCl in 1 L milli-Q water. The pH was then adjusted to pH 6.5 with 1N NaOH or 1N HCl."}, "[2]": {"experiment": "Micro-dissolution in Simulated Gastric Fluid (SGF)", "assay_type": "physicochemical", "details": "9 mg in 25 ml, mean of n = 2", "description": "as §1\nSimulated Gastric Fluid (SGF) media was prepared by adding 131.5 ml 1M HCl to 4 g NaCl and the resulting solution made up to 2 Liters with milli-Q water (de-ionised water)."}}}
{"smiles": "CCCSc1nc(N[C@@H]2C[C@H]2c2ccc(F)c(F)c2)c2nnn([C@@H]3C[C@H](OCCO)[C@@H](O)[C@H]3O)c2n1", "note": "(relative stereo) [Compound A Form II, {1S-[1α,2α, 3β(1S*,2R*),5β]}-3-(7-{[2-(3,4-difluorophenyl)cyclopropyl]amino}-5-(propylthio)-3H-1,2,3-triazolo[4,5-d]pyrimidin-3-yl)-5-(2-hydroxyethoxy)cyclopentane-1,2-diol]", "values": [{"measurement": "Concentration of Compound A", "setting": "[1]; time 0 mins", "value": 0, "unit": "ng/mL"}, {"measurement": "Concentration of Compound A", "setting": "[1]; time 10 mins", "value": 2950, "unit": "ng/mL"}, {"measurement": "Concentration of Compound A", "setting": "[1]; time 20 mins", "value": 3240, "unit": "ng/mL"}, {"measurement": "Concentration of Compound A", "setting": "[1]; time 30 mins", "value": 3310, "unit": "ng/mL"}, {"measurement": "Concentration of Compound A", "setting": "[1]; time 60 mins", "value": 3510, "unit": "ng/mL"}, {"measurement": "Concentration of Compound A", "setting": "[1]; time 240 mins", "value": 3370, "unit": "ng/mL"}, {"measurement": "Concentration of Compound A", "setting": "[2]; time 0 mins", "value": 0, "unit": "ng/mL"}, {"measurement": "Concentration of Compound A", "setting": "[2]; time 10 mins", "value": 7820, "unit": "ng/mL"}, {"measurement": "Concentration of Compound A", "setting": "[2]; time 20 mins", "value": 8100, "unit": "ng/mL"}, {"measurement": "Concentration of Compound A", "setting": "[2]; time 30 mins", "value": 8520, "unit": "ng/mL"}, {"measurement": "Concentration of Compound A", "setting": "[2]; time 60 mins", "value": 8100, "unit": "ng/mL"}, {"measurement": "Concentration of Compound A", "setting": "[2]; time 240 mins", "value": 8450, "unit": "ng/mL"}]}
